Results reported in US10006044B2, “Soybean event SYHT04R and compositions and methods for detection thereof” (Syngenta Participations AG, priority 2010, dated 2018).

How the values were obtained:
Type in all cases: in vivo, Glycine max
[1] = test system: non-transgenic soybean line Jack; test: Field efficacy: leaf injury after mesotrione treatment, control line; details: 210 g ai/ha mesotrione at V2/V3 stage, % of leaves showing injury, 9 US locations
Experimental: (§1) SYH[…] soybean plants were tested for efficacy against mesotrione in 9 locations in the United States. The non-transgenic soybean line Jack was used as a control. […]

SYHT04R soybean plants = test: Field efficacy: leaf injury after mesotrione treatment, event SYHT04R; details: line SYHT04R; 210 g ai/ha mesotrione at V2/V3 stage; % of leaves showing injury; 9 US locations
Experimental: as §1

Soybean event SYHT04R = test: Yield of soybean event SYHT04R sprayed with mesotrione versus the event unsprayed; details: for average yield advantage versus unsprayed: SYHT04R in several elite soybean genotypes, additional replicated trials
Experimental: This observation has been made during multiple seasons of replicated agronomic and efficacy trials conducted on the STYHT04R event in the genotype ‘Jack.’ In a representative study, SYHT04R was tested in twenty Midwestern locations.

event SYHT04R = test: Herbicide tolerance performance of transgenic seeds and progeny plants; details: from a population of about 90 transformants
Excerpt: After plants became established in the soil and new growth appeared (˜1-2 weeks), plants were sampled and tested for the presence of desired transgene by TAQMAN® analysis using appropriate probes for the HPPD genes or promoters. Positive plants were transplanted into 4″ square pots containing Fafard #3 soil. Sierra 17-6-12 slow release fertilizer was incorporated into the soil at the recommended rate. The plants were then relocated into a standard greenhouse to acclimatize (˜1 week). The environmental conditions were: 27° C. day; 21° C. night; 14 hour photoperiod (with supplemental light); ambient humidity. After acclimatizing (˜1 week), the plants were sampled and tested in detail for the presence and copy number of inserted transgenes. Transgenic soybean plants were grown to maturity for T1 seed production. T1 plants were grown up, and after TAQMAN® analysis, homozygous plants were grown for seed production. Transgenic seeds and progeny plants were used to further evaluate their herbicide tolerance performance and molecular characteristics.

CS(=O)(=O)c1ccc(C(=O)C2C(=O)CCCC2=O)c([N+](=O)[O-])c1 [mesotrione]
% Injury 5-11 DAT [1]: 57%
% Injury 14-21 DAT [1]: 78%
% Injury 25-36 DAT [1]: 72%
% Injury 5-11 DAT (SYHT04R soybean plants): 19%
% Injury 14-21 DAT (SYHT04R soybean plants): 10%
% Injury 25-36 DAT (SYHT04R soybean plants): 4%
greater yield than the unsprayed event (Soybean event SYHT04R; 2× application at early vegetative stage, separate study, ten locations): 1.4 bushels per acre
greater yield than the unsprayed event (Soybean event SYHT04R; 2× application at early vegetative stage, twenty Midwestern locations, genotype Jack): 3.7 bushels per acre
greater yield than the unsprayed event (Soybean event SYHT04R; 2× pre-emergence application, separate study, ten locations): 3.1 bushels per acre
greater yield than the unsprayed event (Soybean event SYHT04R; 2× pre-emergence application, twenty Midwestern locations, genotype Jack): 4.9 bushels per acre
average yield advantage versus unsprayed (Soybean event SYHT04R; early post-emergence application): 0.6 bushels per acre
average yield advantage versus unsprayed (Soybean event SYHT04R; pre-emergence application): 1.1 bushels per acre
mesotrione tolerance of the event (event SYHT04R): high level of mesotrione tolerance
